“Also recorded” adds a separate entry of the source.
How the values were obtained:
IL-1 beta [1] = test: LPS/nigericin-induced IL-1 beta maturation in mouse bone marrow-derived macrophages (Western blot); assay type: cell-based; details: d4T 100, 250 uM, FIG. 10
From the text: (§1) To produce FIG. 10, cell culture supernatants were collected after (i) no treatment, (ii) LPS treatment, or (iii) LPS/nigericin treatment of mouse bone marrow-derived macrophages and run on Western blotting probing with antibodies for IL-1 beta and Caspase-1.
(§2) Cell culture supernatants were collected after (i) no treatment, (ii) LPS treatment, or (iii) LPS/nigericin treatment of mouse bone marrow-derived macrophages, and run on Western blotting probing with antibodies for IL-1 beta and Caspase-1.

[2] = test system: mitochondrial reactive oxygen species (mtROS); test: MitoSox assay of mitochondrial ROS in primary human RPE cells with Alu expressing plasmid; assay type: cell-based; details: pAluA vs pUC19, after 15 hours, FIG. 15, 54
Procedure: After 15 hours cells were co-stained for mtROS (red) and for cell count, nuclei (blue; Hoechst DNA stain).
In FIG. 54, mitochondrial reactive oxygen species (ROS) were visualized with MitoSox (Red) and cell nuclei with Hoechst (Blue).

Casp-1 = test: LPS/ATP-induced Casp-1 activation in primary human RPE cells; assay type: cell-based; details: d4T 25/100 uM, FIG. 8
From the text: Vinculin was used as the loading control in the gel of FIG. 8. Additionally, as shown, LPS and ATP activate the NLRP3 inflammasome only in combination.
The loading control in FIG. 8 is vinculin. Furthermore, as shown, LPS and ATP activate the NLRP3 inflammasome only in combination, thus treatment with one or the other alone is useful as a control for this experiment.

IRAK4 = test: Western blot of IRAK4 phosphorylation in primary human RPE cells transfected with Alu RNA; assay type: cell-based; details: FIG. 34
From the text: Alu RNA mediates RPE cell death via activation of Caspase 1 and the NLRP3 inflammasome (Tarallo et al., 2012).

mtDNA = mtDNA levels in primary mouse RPE cells by real-time quantitative PCR; assay type: cell-based
From the text: The present disclosure further provides the results of additional experiments in FIG. 21-FIG. 23.

rat P2X7 receptor = molecular target: T1, rat P2X7 receptor (Rattus norvegicus, UniProt Q64663); test: Patch clamp analysis of P2X7 cation channel function, HEK293 stable cell line expressing rat P2X7 receptor; assay type: cell-based
T1 construct: expressed in transfected cells
T1 sequence (Q64663 1-595): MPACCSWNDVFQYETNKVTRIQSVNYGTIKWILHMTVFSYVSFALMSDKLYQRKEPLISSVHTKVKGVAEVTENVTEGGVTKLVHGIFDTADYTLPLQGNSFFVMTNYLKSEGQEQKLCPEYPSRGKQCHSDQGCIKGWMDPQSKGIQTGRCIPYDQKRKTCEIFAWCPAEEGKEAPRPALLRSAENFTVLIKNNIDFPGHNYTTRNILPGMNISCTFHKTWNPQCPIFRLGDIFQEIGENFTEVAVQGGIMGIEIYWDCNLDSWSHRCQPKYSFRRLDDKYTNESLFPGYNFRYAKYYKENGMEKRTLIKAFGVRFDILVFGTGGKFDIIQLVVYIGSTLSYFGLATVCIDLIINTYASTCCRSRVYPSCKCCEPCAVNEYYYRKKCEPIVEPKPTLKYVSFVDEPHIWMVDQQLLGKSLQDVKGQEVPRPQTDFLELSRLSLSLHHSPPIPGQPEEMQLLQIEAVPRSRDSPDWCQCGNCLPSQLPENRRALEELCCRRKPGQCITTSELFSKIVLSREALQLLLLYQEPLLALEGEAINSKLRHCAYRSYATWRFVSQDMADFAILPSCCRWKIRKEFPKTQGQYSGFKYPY

HeLa cells = test: MTS proliferation assay of HeLa cells treated with Alu RNA expression plasmid (pAluA); assay type: cell-based, human; details: pAluA vs pUC19, d4T co-administration, FIG. 2
RPE degeneration [3] = test: RPE degeneration in mice after sub-retinal injection of a plasmid expressing Alu RNA, systemic drug administration; assay type: in vivo, mouse; details: daily oral administration of d4T, FIG. 36
From the text: FIG. 24, top row, provides flat mounts stained for zonula occludens-1 (ZO-1; red), bottom row. Degeneration is outlined if FIG. 24 by blue arrowheads. Representative images of n=4 are shown.
FIG. 36 and FIG. 37 include fundus photographs: top row; flat mounts stained for zonula occludens-1 (ZO-1; red), bottom row. Degeneration is outlined by blue arrowheads. Scale bars, 50 μm.

IL-1 beta [4] = test: MSU-induced IL-1 beta secretion from PMA-differentiated THP-1 monocytes (ELISA); assay type: cell-based, human; details: co-administration at 25-1000 uM, FIG. 11, 12
From the text: Human THP-1 monocytes were differentiated into macrophages with PMA.
To illustrate this, human THP-1 monocytes were differentiated into macrophages with PMA. Treatment with MSU increased IL-1 beta secretion compared to non-treated cells.

RPE degeneration [5] = test: Alu RNA-induced RPE degeneration in wild type mice, d4T co-delivered to the vitreous humor; assay type: in vivo, mouse; details: sub-retinal Alu RNA, increasing amounts, one week after delivery, FIG. 1
From the text: Arrows denote depigmented regions of RPE cell death, which resolve at highest dose of d4T.

human P2X7 receptor = molecular target: T2, human P2X7 receptor (Homo sapiens, UniProt Q99572); test: bzATP-induced YO-PRO-1 dye uptake in HEK293 cells stably expressing the human P2X7 receptor; assay type: cell-based
T2 construct: expressed in transfected cells
T2 sequence (Q99572 1-595): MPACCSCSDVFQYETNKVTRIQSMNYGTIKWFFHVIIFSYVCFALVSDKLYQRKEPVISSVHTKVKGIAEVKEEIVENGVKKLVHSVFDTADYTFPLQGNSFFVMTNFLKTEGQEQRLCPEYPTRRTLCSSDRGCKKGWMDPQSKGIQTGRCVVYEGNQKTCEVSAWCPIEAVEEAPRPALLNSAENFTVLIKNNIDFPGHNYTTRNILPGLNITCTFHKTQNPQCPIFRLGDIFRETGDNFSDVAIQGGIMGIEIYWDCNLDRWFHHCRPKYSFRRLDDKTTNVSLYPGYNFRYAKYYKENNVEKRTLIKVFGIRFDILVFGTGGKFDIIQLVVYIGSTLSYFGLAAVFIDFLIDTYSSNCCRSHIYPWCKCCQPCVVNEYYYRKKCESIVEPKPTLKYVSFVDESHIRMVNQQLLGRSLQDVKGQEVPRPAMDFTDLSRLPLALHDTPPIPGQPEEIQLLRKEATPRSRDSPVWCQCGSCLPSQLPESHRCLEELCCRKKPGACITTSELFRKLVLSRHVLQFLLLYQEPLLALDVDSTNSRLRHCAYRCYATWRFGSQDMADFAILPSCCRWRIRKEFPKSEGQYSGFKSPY
From the text: Finally, P2X7 activation is associated with the formation of a large pore that is permeable to molecules of up to ˜1000 Da (Adinolfi et al., 2005; Cheewatrakoolpong et al., 2005; Surprenant et al., 1996).

Caspase-1 = test: LPS/nigericin-induced Caspase-1 activation in mouse bone marrow-derived macrophages (Western blot); assay type: cell-based; details: d4T 100, 250 uM, FIG. 10
From the text: as §1, §2

neutrophil migration = test: NLRP3- and P2X7-driven model of sterile inflammation (liver injury); assay type: in vivo
From the text: (§3) To explore the potential therapeutic relevance of NRTIs beyond the Alu-induced model of geographic atrophy (GA), it was hypothesized that if NRTIs function as generic inflammasome inhibitors, then they might be broadly useful in other animal models of disease that are also driven by P2X7.

[6] = test system: graft-versus-host disease; test: Graft-versus-host disease model, mice receiving allogeneic bone marrow and T cells; assay type: in vivo, mouse; details: saline treated controls 0%
From the text: as §3

Cc1cn([C@H]2C=C[C@@H](CO)O2)c(=O)[nH]c1=O [d4T, 2′3′ dideoxythymidine]
IL-1 beta maturation (18 and 22 kDa forms) induced by nigericin (IL-1 beta [1]): inhibits | Mitochondrial ROS (mtROS) caused by Alu expression (MitoSox) [2]: blocks mitochondrial ROS (mtROS) production; also recorded: reduces mitochondrial ROS caused by Alu expression; also recorded: prevents pAlu-induced mitochondrial ROS generation | Casp-1 activation induced by LPS/ATP (Casp-1): blocks | IRAK4 phosphorylation (IRAK4): blocks phosphorylation of IRAK4 | mtDNA levels (normalized to chromosomal DNA exon-intron junction sequence) (mtDNA): reduces mtDNA levels | P2X7 cation channel function (patch clamp) (rat P2X7 receptor): did not significantly modulate P2X7 cation channel function | Cell viability / cell death induced by Alu overexpression (MTS) (HeLa cells): prevented cell death induced by Alu overexpression | RPE degeneration caused by pAlu (RPE degeneration [3]): blocked RPE degeneration; also recorded: prevented | IL-1 beta secretion induced by MSU (IL-1 beta [4]): does not prevent P2X7-independent interleukin 1-beta secretion; also recorded: did not significantly affect IL-1beta secretion | Alu RNA-induced RPE degeneration / RPE cell death (fundus photographs, ZO-1 flat mounts) (RPE degeneration [5]): prevents Alu RNA-induced RPE cell death in a dose-dependent manner; also recorded: restored to healthy RPE morphology/intercellular junctions at highest dose of d4T | YO-PRO-1 iodide entry stimulated with bzATP (human P2X7 receptor; HEK293 human P2X7, pre-incubated 30 minutes, fluorescence 485/515 nm at t=30 minutes, FIG. 19): blocked YO-PRO-1 iodide entry | P2X7-mediated YO-PRO-1 dye uptake (fluorescence) induced by bzATP (human P2X7 receptor; bzATP 100 μM, 64 μM for both drugs, p<0.05, n=12, FIG. 43): inhibited | P2X7-dependent uptake of YO-PRO1 after addition of bzATP (human P2X7 receptor; human P2X7-overexpressing HEK293 stable cell line, concentration not given): inhibited P2X7-dependent uptake of the fluorescent dye YO-PRO1 | Caspase-1 activation (active p20 band) induced by nigericin (Caspase-1): inhibits | Neutrophil migration to the focus of liver injury (neutrophil migration): reduced neutrophil migration to the focus of liver injury | Survival [6]: 30-70%
